Experimental data reported in US20040260084A1, “Novel c-3 s/o-and s/n formaldehe acetal derivatives of cephalosporins and their use as antibotics” (priority 2001, published 2004).

Tests used:
Staph. aureus resistant = assay: MIC, agar dilution (DIFCO Bacto Nutrient Agar); assay type: cell-based
Method: (§1) The plates were then inoculated with a bacterial suspension obtained by diluting an overnight culture (37° C.) in DIFCO Bacto Nutrient Broth (pH 6.8) with sterile 1% NaCl (1:1000) using a 19 pin inoculator (Mast Diagnostics). MIC's […] were determined 18 h after incubation at 37° C.
(§2) Inoculum effect after inoculation with an non-diluted overnight culture (in comparison to Table 1). MIC's (μ/ml) were determined 18 h after incubation at 37° C.

Staph. aureus 25768 = assay: MIC, agar dilution (DIFCO Bacto Nutrient Agar); assay type: cell-based
Method: as §1, §2

Staph. aureus DSM 1104 = assay: MIC, agar dilution (DIFCO Bacto Nutrient Agar); assay type: cell-based
Method: as §1, §2

[1] = test system: Escherichia coli DSM 1103; assay: MIC, agar dilution (DIFCO Bacto Nutrient Agar); assay type: cell-based
Method: as §1, §2

Escherichia coli TEM 1 = assay: MIC, agar dilution (DIFCO Bacto Nutrient Agar); assay type: cell-based
Method: as §1, §2

[2] = Chemical stability, half-life of hydrolysis by UV spectroscopy; assay type: physicochemical; conditions: 37° C.
Method: The half-lives (h) of hydrolysis was determined at 37° C. by UV spectroscopy in physiological phosphate buffer and in physiological NaCl solution containing 0.01 N HCl.

[3] = Blood serum stability, agar diffusion test with Escherichia coli TEM 1; assay type: in vitro ADME; conditions: sterile bovine serum (OXOID), 37° C.
Method: The stability in blood serum was determined microbiologically using agar diffusion test with Escherichia coli TEM 1. The compounds I were incubated with sterile bovine serum (OXOID) at 37° C. At 0 h, 1 h, 2 h and 4 h intervals aliquot samples were spotted and remaining amounts of active antibiotic were calculated from the inhibition diameters (18-30 mm) in comparison with those (15-30 mm) obtained with 30 μg, 15 μg, 7.5μ and 3.75 μg of antibiotic.

E. coli 3981 TEM-1 = assay: In vivo activity, experimental systemic infection in mice; conditions: Escherichia coli
Method: In vivo activity (ED50) was determined. Mice were infected intraperitoneally with ca. […] of E. coli 3981 TEM-1. Untreated animals died within 48 h after infection. Compounds were administered by oral or subcutaneous route a first time 10 min after infection and a second time 4 h later. The 50% effective dose (ED50) was calculated by the Spearman-Kärber method from the percentages of animals surviving to day 7 at each dose.

[4] = inoculum ca. 10^4, 18 h at 37° C.
[5] = inoculum ca. 10^7 (non-diluted overnight culture), 18 h at 37° C.
[6] = Staph. aureus 25768, inoculum ca. 10^4, 18 h at 37° C.
[7] = Staph. aureus 25768, inoculum ca. 10^7 (non-diluted overnight culture), 18 h at 37° C.
[8] = Staph. aureus DSM 1104, inoculum ca. 10^4, 18 h at 37° C.
[9] = Staph. aureus DSM 1104, inoculum ca. 10^7 (non-diluted overnight culture), 18 h at 37° C.
[10] = Escherichia coli DSM 1103, inoculum ca. 10^4, 18 h at 37° C.
[11] = Escherichia coli DSM 1103, inoculum ca. 10^7 (non-diluted overnight culture), 18 h at 37° C.
[12] = Escherichia coli TEM 1, inoculum ca. 10^4, 18 h at 37° C.
[13] = Escherichia coli TEM 1, inoculum ca. 10^7 (non-diluted overnight culture), 18 h at 37° C.
[14] = pH 2, physiological NaCl solution containing 0.01 N HCl
[15] = pH 7.4, physiological phosphate buffer

Molecule `COCSC1=C(C(=O)[O-])N2C(=O)[C@@H](NC(=O)/C(=N\OCC(=O)[O-])c3csc(N)n3)[C@H]2SC1.[K+].[K+]` [Cephalosporin 1b, dipotassium (6R,7R)-7-[(Z)-2-(2-amino-thiazol-4-yl)-2-carboxy-methoximino-acetylamino]-3-methoxymethylthio-8-oxo-5-thia-1-aza-bicyclo[4.2.0]oct-2-ene-2-carboxylate] has an MIC (Staph. aureus resistant; [4]) of 16 pig/ml, an MIC (Staph. aureus resistant; [5]) of 32 μ/ml and an MIC (Staph. aureus 25768; [6]) of over 64 pig/ml. For the same molecule, the MIC (Staph. aureus 25768; [7]) was over 64 μ/ml, the MIC (Staph. aureus DSM 1104; [8]) was 4 pig/ml and the MIC (Staph. aureus DSM 1104; [9]) was 4 μ/ml. For the same molecule, the MIC [1, 10] was 2 pig/ml, the MIC [1, 11] was 2 μ/ml and the MIC (Escherichia coli TEM 1; [12]) was 2 pig/ml. The MIC (Escherichia coli TEM 1; [13]) was 2 μ/ml, the half-life [2, 14] was 16.6 days and the half-life [2, 15] was 17.5 days. It also gave a half-life [3] of 0.113 days.

Molecule `COCSC1=C(C(=O)[O-])N2C(=O)[C@@H](NC(=O)/C(=N\OC)c3csc(N)n3)[C@H]2SC1.[K+]` [Cephalosporin 1a, potassium (6R,7R)-7-[(Z)-2-(2-amino-thiazol-4-yl)-2-methoximino-acetylamino]-3methoxymethylthio-8-oxo-5-thia-1-aza-bicyclo[4.2.0]oct-2-ene-2-carboxylate] has an MIC (Staph. aureus resistant; [4]) of 2 pig/ml, an MIC (Staph. aureus resistant; [5]) of 4 μ/ml and an MIC (Staph. aureus 25768; [6]) of 16 pig/ml. For the same molecule, the MIC (Staph. aureus 25768; [7]) was 32 μ/ml, the MIC (Staph. aureus DSM 1104; [8]) was 0.5 pig/ml and the MIC (Staph. aureus DSM 1104; [9]) was 0.5 μ/ml. The MIC [1, 10] was 1 pig/ml, the MIC [1, 11] was 1 μ/ml and the MIC (Escherichia coli TEM 1; [12]) was 2 pig/ml. For the same molecule, the MIC (Escherichia coli TEM 1; [13]) was 2 μ/ml, the ED50 (E. coli 3981 TEM-1; 3981TEM1, po) was 8.35 mg/kg and the ED50 (E. coli 3981 TEM-1; 3981TEM1, sc) was 0.84 mg/kg. For the same molecule, the half-life [2, 14] was 15.6 days, the half-life [2, 15] was 16.9 days and the half-life [3] was 0.2 days.

`COCSC1=C(C(=O)O)N2C(=O)[C@@H](NC(=O)[C@H](N)c3ccccc3)[C@H]2SC1` [Cephalosporin 1c, (2′R,6R,7R)-7-(2′amino-2′-phenylacetamino)-3-methoxymethylthio-8-oxo-5-thia-1-aza-bicyclo[4.2.0]oct-2-ene-2-carboxylic acid] gave an MIC (Staph. aureus resistant; [4]) of 2 pig/ml, an MIC (Staph. aureus resistant; [5]) of 8 μ/ml and an MIC (Staph. aureus 25768; [6]) of 8 pig/ml. It also gave an MIC (Staph. aureus 25768; [7]) of 32 μ/ml, an MIC (Staph. aureus DSM 1104; [8]) of 0.2 pig/ml and an MIC (Staph. aureus DSM 1104; [9]) of 0.5 μ/ml. For the same molecule, the MIC [1, 10] was 4 pig/ml, the MIC [1, 11] was 4 μ/ml and the MIC (Escherichia coli TEM 1; [12]) was over 64 pig/ml. It also gave an MIC (Escherichia coli TEM 1; [13]) of 32 μ/ml, a half-life [2, 14] of 7.12 days and a half-life [2, 15] of 7.54 days.
